Here are results for six compounds from ChEMBL document CHEMBL6115017, “Discovery of DFV890, a Potent Sulfonimidamide-Containing NLRP3 Inflammasome Inhibitor” (J Med Chem, 2025).

The structures appear in SMILES notation. In brackets after ≈: the same amount, converted by molar mass.

The nature of data set [1]: Volume of distribution at steady state in Sprague-Dawley rat at 5 mg/kg, po by LC-MS analysis. Format: ADME, organism-based. The note with it: in vivo.
A short description of data set [2]: Metabolic stability in rat hepatocytes assessed as intrinsic clearance measured per 10^6 cells. Format: ADME, cell-based, Hepatocyte. The note with it: read-out: CLH.
Data set [3] is described as follows: Clearance in Sprague-Dawley rat at 5 mg/kg, po by LC-MS analysis. Format: ADME, organism-based. The note with it: in vivo.
Data set [4] is described as follows: Solubility of the compound in PBS at pH 7.4. Format: physicochemical.
Data set [5] in a line: Fraction unbound in human plasma. The data set is classed as ADME, cell-free.
The nature of data set [6]: Half life in Sprague-Dawley rat at 5 mg/kg, po by LC-MS analysis. Format: ADME, organism-based. The note with it: in vivo.
The nature of data set [7]: Fraction unbound in Sprague-Dawley rat plasma. The data set is classed as ADME, cell-free.
Data set [8] is described as follows: Oral bioavailability in Sprague-Dawley rat at 5 mg/kg administered through oral gavage by LC-MS analysis. Format: ADME, organism-based. The note with it: in vivo.
Data set [9] is described as follows: Metabolic stability in human hepatocytes assessed as intrinsic clearance measured per 10^6 cells. The note with it: read-out: CLH. The data set is classed as ADME, cell-based, Hepatocyte.

By CL/F is commonly meant the apparent clearance, not corrected for the fraction that reaches the circulation. What is called solubility is the dissolved amount per volume that the medium holds. Read a low solubility as little dissolved substance. A word on the fraction unbound: it is the share of the substance not bound to proteins or other matrix. A word on the half-life: it is the time in which the quantity being followed falls by half. A lower half-life goes with rapid decline. The bioavailability is the share of a dose that reaches the circulation, judged against a reference dose that is usually intravenous. Low readings indicate little systemic uptake, high ones much systemic uptake. Turning to `CC(C)(O)c1ncc([S@](N)(=O)=NC(=O)Nc2c3c(c(F)c4c2CCC4)CCC3)s1`, in data set [1], the Vdss amounted to 0.178 L/kg. The results for the hepatocyte CLint in [2] and in data set [9] were 3.7 µL/min/1e6 cells and 3 µL/min/1e6 cells, respectively. In data set [3], this compound gave a CL/F of 1.08 mL/min/kg. Also, the solubility in data set [4] is 8 µg/mL (≈ 18.2 µM). The fraction unbound in data set [5] was 0.003; in data set [7] it was 0.007. This compound also showed a half-life in [6] of 3.07 h. Also, the bioavailability in data set [8] amounted to 68%.
In data set [1], `CC(C)(O)c1cnc([S@](N)(=O)=NC(=O)Nc2c3c(cc4c2CCC4)CCC3)s1` registered a Vdss of 0.29 L/kg. For the same compound, the hepatocyte CLint in data set [2] worked out at 5.2 µL/min/1e6 cells; in data set [9], 0.63 µL/min/1e6 cells. Besides, in [3], the CL/F was determined as 3.7 mL/min/kg. The fraction unbound in data set [5] came out at 0.009. Further, the half-life in data set [6] is 2.6 h.
In turn, `CC(C)(O)c1coc(S(=O)(=O)NC(=O)Nc2c3c(cc4c2CCC4)CCC3)c1` yielded a Vdss in [1] of 0.271 L/kg. The compound further gave a CL/F in data set [3] of 15.9 mL/min/kg. In data set [4], this compound registered a solubility of 1080 µg/mL (≈ 2680 µM). In addition, the results for the fraction unbound in data set [5] and in [7] were 0.007 and 0.013, respectively. In addition, in data set [6], the half-life is 0.635 h. In data set [8], this compound displayed a bioavailability of 47%.
In data set [1], `CC(C)(O)c1csc([S@](N)(=O)=NC(=O)Nc2c3c(cc4c2CCC4)CCC3)n1` registered a Vdss of 0.353 L/kg. Further, the hepatocyte CLint was 5.2 µL/min/1e6 cells in data set [2] and 4.2 µL/min/1e6 cells in data set [9]. The CL/F in data set [3] amounted to 3.21 mL/min/kg. In addition, the fraction unbound was found to be 0.014 in data set [5] and 0.02 in data set [7]. Moreover, the half-life in [6] was 4.13 h. Besides, the bioavailability in data set [8] amounted to 70%.
Turning to `CC(C)(O)c1csc([S@](N)(=O)=NC(=O)Nc2c3c(cc4c2CCC4)CCC3)c1`, the Vdss in data set [1] came to 0.191 L/kg. Moreover, the hepatocyte CLint came to 2.5 µL/min/1e6 cells in data set [2] and 3.6 µL/min/1e6 cells in data set [9]. In addition, the apparent clearance CL/F in [3] came to 1.15 mL/min/kg. Moreover, the solubility in data set [4] was 24 µg/mL (≈ 57.2 µM). In addition, the results for the fraction unbound in data set [5] and in data set [7] were 0.009 and 0.011, respectively. For the same compound, the half-life in data set [6] was 2.91 h. The bioavailability in data set [8] came out at 50%.
`CC(C)(O)c1nc([S@](N)(=O)=NC(=O)Nc2c3c(cc4c2CCC4)CCC3)cs1` gave a Vdss in data set [1] of 0.541 L/kg. Further, the results for the hepatocyte CLint in data set [2] and in data set [9] were 5.4 µL/min/1e6 cells and 1.6 µL/min/1e6 cells, respectively. In addition, the CL/F in data set [3] is 11.1 mL/min/kg. For the same compound, the fraction unbound in [5] turned out to be 0.057; in [7] it was 0.05. This compound also gave a half-life in [6] of 2.36 h. This compound gave a bioavailability in [8] of 100%.
